From publication PMC7028039, “Convergent evolution of the UbiA prenyltransferase family underlies the independent acquisition of furanocoumarins in plants” (The New Phytologist, 2019)

Legend:
FcPT1b = biological target: T1, FcPT1b (Ficus carica, UniProt A0A6S4PSN9); assay: microsomal prenyltransferase assay, HPLC and LC-MS2 product identification; format: biochemical; conditions: 50 µM umbelliferone, 200 µM DMAPP, 10 mM MgCl2; product demethylsuberosin (DMS)
T1 construct: full CDS with transit peptide, pGWB502 (35S promoter), transient expression in Nicotiana benthamiana leaves, microsomes
T1 sequence (A0A6S4PSN9 1-422): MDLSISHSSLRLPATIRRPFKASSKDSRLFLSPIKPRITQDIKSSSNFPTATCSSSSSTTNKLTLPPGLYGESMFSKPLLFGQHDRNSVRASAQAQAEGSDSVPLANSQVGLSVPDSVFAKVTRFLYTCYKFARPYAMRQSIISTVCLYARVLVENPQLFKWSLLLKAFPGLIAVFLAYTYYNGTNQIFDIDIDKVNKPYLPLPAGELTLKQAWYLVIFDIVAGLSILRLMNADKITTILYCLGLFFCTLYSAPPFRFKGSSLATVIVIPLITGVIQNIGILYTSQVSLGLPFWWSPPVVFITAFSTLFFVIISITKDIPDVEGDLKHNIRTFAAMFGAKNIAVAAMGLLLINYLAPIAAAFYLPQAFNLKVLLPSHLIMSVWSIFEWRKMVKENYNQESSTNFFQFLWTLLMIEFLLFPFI

FcPT1a = FcPT1a (Ficus carica, UniProt A0A6S4Q0J8); conditions: read-out: apparent Km; co-substrate DMAPP; Mg2+; 28 °C
Procedure: microsomal prenyltransferase assay, HPLC-PDA, nonlinear fit on FcPT1a | The apparent K m values of FcPT1a for umbelliferone and DMAPP were determined

[1] = test system: CC(C)=CCOP(=O)(O)OP(=O)(O)O; assay: cells, lysate or membranes; conditions: co-substrate umbelliferone, Mg2+, 28 °C

Km (FcPT1a)	Compound	microsomal prenyltransferase assay, HPLC and LC-MS2 product identification (FcPT1b)	Km [1]
–	CC(C)=CCOP(=O)(O)OP(=O)(O)O [dimethylallyl diphosphate]	UDT reaction mixtures composed of microsomes containing recombinant FcPT1a/b proteins yielded an enzymatic reaction product	–
35 ± 4 µM	O=c1ccc2ccc(O)cc2o1 [umbelliferone]	recombinant FcPT1a/b proteins yielded an enzymatic reaction product concomitant with the consumption of umbelliferone	–
–	FcPT1a (Ficus carica)	–	17 ± 1 µM
